Experimental data taken from ChEMBL document CHEMBL1201862, “PubChem BioAssay data set” (2004).
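Cells were grown in 96-well plates and exposed to each compound for 48 hours at five concentrations; endpoints were interpolated linearly between bracketing concentrations, or set to the highest concentration if not reached. GI50 marks 50% less growth.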 Active and inactive are the calls of the source. No stated cut-off is given here; in the data, active = GI50 up to about 1.1 µM and inactive = higher.

Tests used:
Test in all cases: growth of human tumour cells (NCI), 48 h
SK-OV-3 = tested on: SK-OV-3
SK-MEL-28 = tested on: SK-MEL-28
SNB-75 = tested on: SNB-75
CCRF-CEM = tested on: CCRF-CEM
BT-549 = tested on: BT-549
NCI-H23 = tested on: NCI-H23
IGROV-1 = tested on: IGROV-1
MDA-MB-435 = tested on: MDA-MB-435
OVCAR-8 = tested on: OVCAR-8
MDA-MB-231 = tested on: MDA-MB-231
UO-31 = tested on: UO-31
SNB-19 = tested on: SNB-19
RPMI-8226 = tested on: RPMI-8226
T47D = tested on: T47D
NCI-H460 = tested on: NCI-H460
EKVX = tested on: EKVX
LOX IMVI = tested on: LOX IMVI
PC-3 = tested on: PC-3
MCF7 = tested on: MCF7
SR = tested on: SR

SMILES | GI50 (SK-OV-3) | GI50 (SK-MEL-28) | GI50 (SNB-75) | GI50 (CCRF-CEM) | GI50 (BT-549) | GI50 (NCI-H23) | GI50 (IGROV-1) | GI50 (MDA-MB-435) | GI50 (OVCAR-8) | GI50 (MDA-MB-231) | GI50 (UO-31) | GI50 (SNB-19) | GI50 (RPMI-8226) | GI50 (T47D) | GI50 (NCI-H460) | GI50 (EKVX) | GI50 (LOX IMVI) | GI50 (PC-3) | GI50 (MCF7) | GI50 (SR)
COC(=O)c1cc(Br)c(C(=O)C(Cl)(Cl)Cl)[nH]1 | > 100 µM (inactive) | > 100 µM (inactive) | > 100 µM (inactive) | > 100 µM (inactive) | > 100 µM (inactive) | > 100 µM (inactive) | > 100 µM (inactive) | > 100 µM (inactive) | > 100 µM (inactive) | > 100 µM (inactive) | > 100 µM (inactive) | > 100 µM (inactive) | > 100 µM (inactive) | > 100 µM (inactive) | > 100 µM (inactive) | > 100 µM (inactive) | > 100 µM (inactive) | > 100 µM (inactive) | – | –
CCOc1ccc(N/C(=C(/C(Cl)=C(/Cl)N(CC)CC)[N+](=O)[O-])n2nnc3ccccc32)cc1 | 56.1 µM (inactive) | 20 µM (inactive) | 20.3 µM (inactive) | 19.8 µM (inactive) | 19.8 µM (inactive) | 17.2 µM (inactive) | – | 19.5 µM (inactive) | 16.2 µM (inactive) | 10.7 µM (inactive) | 19.6 µM (inactive) | 31.7 µM (inactive) | 26.9 µM (inactive) | 14.2 µM (inactive) | 56.5 µM (inactive) | 23.3 µM (inactive) | – | 17.5 µM (inactive) | 29.9 µM (inactive) | –
COc1ccc(C2OC(N)=C(C#N)C3=C2CCCC3C)cc1OC (stereo unspecified) | > 100 µM (inactive) | > 100 µM (inactive) | 23.8 µM (inactive) | > 100 µM (inactive) | > 100 µM (inactive) | > 100 µM (inactive) | > 100 µM (inactive) | > 100 µM (inactive) | > 100 µM (inactive) | > 100 µM (inactive) | > 100 µM (inactive) | > 100 µM (inactive) | > 100 µM (inactive) | > 100 µM (inactive) | > 100 µM (inactive) | > 100 µM (inactive) | > 100 µM (inactive) | > 100 µM (inactive) | > 100 µM (inactive) | –
O=C1CCCC1CC(CN1CCOCC1)Sc1nnnn1-c1ccccc1 (stereo unspecified) | > 100 µM (inactive) | > 100 µM (inactive) | 21.3 µM (inactive) | > 100 µM (inactive) | > 100 µM (inactive) | > 100 µM (inactive) | > 100 µM (inactive) | > 100 µM (inactive) | > 100 µM (inactive) | 72.3 µM (inactive) | 96.8 µM (inactive) | > 100 µM (inactive) | 42.1 µM (inactive) | – | – | 28.9 µM (inactive) | > 100 µM (inactive) | > 100 µM (inactive) | 18.2 µM (inactive) | > 100 µM (inactive)
CCOC(=O)Cc1nc2c(O)ncnc2n1C1OC(COC(C)=O)C(OC(C)=O)C1OC(C)=O (stereo unspecified) | > 100 µM (inactive) | > 100 µM (inactive) | > 100 µM (inactive) | > 100 µM (inactive) | > 100 µM (inactive) | > 100 µM (inactive) | > 100 µM (inactive) | > 100 µM (inactive) | > 100 µM (inactive) | > 100 µM (inactive) | > 100 µM (inactive) | > 100 µM (inactive) | > 100 µM (inactive) | > 100 µM (inactive) | > 100 µM (inactive) | > 100 µM (inactive) | > 100 µM (inactive) | > 100 µM (inactive) | > 100 µM (inactive) | –
COc1cc(C2c3cc4c(cc3[C@H](NC(=O)c3cccs3)C3COC(=O)[C@H]23)OCO4)cc(OC)c1OC (stereo partly specified) | 0.027 µM (active) | 0.0708 µM (active) | < 0.0152 µM (active) | < 0.0179 µM (active) | < 0.01 µM (active) | < 0.0143 µM (active) | 0.0147 µM (active) | – | < 0.01 µM (active) | < 0.01 µM (active) | 0.0811 µM (active) | < 0.018 µM (active) | 0.0134 µM (active) | 46.7 µM (inactive) | 0.0172 µM (active) | 0.0731 µM (active) | < 0.0107 µM (active) | < 0.01 µM (active) | < 0.01 µM (active) | 0.0122 µM (active)
CC(NC(=O)/C(=C/c1ccccc1O)NC(=O)c1ccccc1)C(=O)O (stereo unspecified) | 19.4 µM (inactive) | > 100 µM (inactive) | 15.4 µM (inactive) | > 100 µM (inactive) | 18.9 µM (inactive) | > 100 µM (inactive) | 17.9 µM (inactive) | 27.8 µM (inactive) | 15.7 µM (inactive) | 22 µM (inactive) | 17.5 µM (inactive) | 20.6 µM (inactive) | > 100 µM (inactive) | 13.2 µM (inactive) | 24.5 µM (inactive) | 18.8 µM (inactive) | 33.2 µM (inactive) | – | 5.85 µM (inactive) | –
C/C1=C/C2=CC(C)C[C@@H]2C(=O)[C@]2(C)C(=O)CC(C)(C)[C@H]2CC1=O (stereo partly specified) | > 50 µM (inactive) | – | > 50 µM (inactive) | 15 µM (inactive) | > 50 µM (inactive) | > 50 µM (inactive) | > 50 µM (inactive) | > 50 µM (inactive) | > 50 µM (inactive) | > 50 µM (inactive) | > 50 µM (inactive) | > 50 µM (inactive) | 34.8 µM (inactive) | > 50 µM (inactive) | > 50 µM (inactive) | > 50 µM (inactive) | > 50 µM (inactive) | > 50 µM (inactive) | > 50 µM (inactive) | –
